Where “and” joins values, the source holds several entries; their conditions need not be identical. Equal entries are not always repeated.
Molecular target: T1, HsERK8 (Homo sapiens, UniProt Q8TD08)
T1 construct: plasmid pGEX2T expressing the full-length hERK8 coding region; made in house; host or cells: Escherichia coli Rosetta 2 (DE3)
T1 sequence (Q8TD08 1-544): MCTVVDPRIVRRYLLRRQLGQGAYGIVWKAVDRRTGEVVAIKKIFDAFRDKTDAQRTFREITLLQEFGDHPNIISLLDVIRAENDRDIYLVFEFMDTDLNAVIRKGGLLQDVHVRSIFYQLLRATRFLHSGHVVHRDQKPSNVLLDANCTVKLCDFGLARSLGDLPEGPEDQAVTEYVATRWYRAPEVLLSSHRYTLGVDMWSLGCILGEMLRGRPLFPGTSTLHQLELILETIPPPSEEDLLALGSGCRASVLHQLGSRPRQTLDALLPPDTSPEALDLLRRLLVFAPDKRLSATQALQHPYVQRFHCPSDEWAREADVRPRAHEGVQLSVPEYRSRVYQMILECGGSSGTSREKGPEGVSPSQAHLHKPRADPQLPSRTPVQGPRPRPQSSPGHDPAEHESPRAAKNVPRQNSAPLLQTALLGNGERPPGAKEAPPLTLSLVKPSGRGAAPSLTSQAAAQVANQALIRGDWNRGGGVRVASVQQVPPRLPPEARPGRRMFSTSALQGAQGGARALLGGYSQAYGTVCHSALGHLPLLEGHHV
Assay: Luciferase-based kinase inhibition assay (ATP luminescence), GST-tagged HsERK8 with MBP substrate
Type: biochemical
Details: for raw luminescence, HsERK8: sheet Kinase_glo_080924_IFPS (2), replicate wells, listed as Ida
Description: Escherichia coli strain Rosetta 2 (DE3) (Cat# 71397, MilliporeSigma, Burlington, MA) was transformed with the plasmid pGEX2T expressing the full-length hERK8 coding region or pGSTAg expressing the full-length TbERK8 coding region. One liter of Terrific Broth media containing 100 μg/ml Ampicillin and 30 μg/ml chloramphenicol in 2 L baffled flasks was inoculated with 25 mL from an overnight culture of Rosetta 2 strains harboring either the pGEX2T-hERK8 or pGSTAg-TbERK8 plasmid. Two baffled flasks were inoculated with each overnight strain and incubated and shaken at 175 RPM in a New Brunswick Innova 44R Incubator Shaker (Fischer Scientific, Pittsburgh, PA) at 37 °C until the cultures reached an O.D.600 of 0.94. Once the cultures in the flask reached the target O.D.600, the flasks were cooled to 4 °C in an ice water bath. The cooled cultures were induced by adding isopropyl β-D-1-thiogalactopyranoside (IPTG) to a final concentration of 0.1 mM and shaken at 16 °C for 16 hours at 175 RPM in a New Brunswick Innova 44R Incubator Shaker (Fischer Scientific, Pittsburgh, PA). On the next day, the cultures were pelleted by centrifugation at 9000 xg in a JLA 10.500 rotor (Beckman Coulter; Brea, CA), and the media was decanted. The pellet was flash-frozen in liquid nitrogen and then thawed on ice. The thawed pellet was resuspended in lysis buffer (25 mM Tris, 75 mM NaCl, 0.5% TritonX-100 and 0.5% Nonidet P-40, 1 mM phenylmethanesulfonyl fluoride, 1 mM benzamidine⋅HCl) and lysed using a microfluidizer M-110P from Microfluidics (Westwood, MA). The crude lysates were clarified by centrifugation at 140,000 xg in a 45Ti rotor (Beckman Coulter, Brea, CA) for 30 min at 4°C. The clarified lysate was loaded by gravity to a 3 mL glutathione agarose resin column (Cat# G-250–10, GOLDBIO, St. Louis, MO) formed in a 1.5 × 20 cm glass chromatography column (Cat# 7371522, Bio-Rad, Hercules, CA). The column was washed with 30 mL of PBS (pH 7.4) containing 1 mM DTT. Elution buffer (50 mM Tris buffer pH 8.0 containing 10 mM reduced glutathione and 1 mM DTT was added to the washed column), and 1 mL fractions were collected by gravity and examined by SDS-PAGE stained by Coomassie dye. Peak fractions pooled from the elution were dialyzed (4x 1:500 dilutions) in kinase buffer (30 mM Tris, pH 7.4, 10 mM MgCl2, 1 mM DTT, 5% glycerol).
We performed kinase assays in buffer K (30 mM Tris pH 7.4, 10 mM MgCl2, 1 mM DTT, 5% glycerol, 50 μM ATP, and 0.1 mg/mL BSA) at 30°C for 30 min in 30 μL reactions. GST-tagged HsERK8 and TbERK8 were tested using myelin basic protein (MBP) (Cat# 13–110, Millipore, Darmstadt, Germany) as the substrate at increasing concentrations to determine the optimal activity for the assay. ATP consumption was determined by adding equal volumes of the kinase assay reagent (Promega, Cat# V5601, Madison, WI) following the manufacturer’s protocol. Luminescence was measured using the microplate reader (SpectraMax L, Molecular Devices, Sunnyvale, CA).
These compounds were screened for kinase inhibition utilizing a luciferase-based assay. Briefly, the kinases were tested using MBP as the substrate at a 14-fold molar excess in 384-well flat-bottom white plates (BRANDTECH Scientific, Cat# 781681, Essex, CT). These compounds were tested at concentrations ranging from […] to 150 nM. The kinases plus MBP substrate reactions were incubated with each inhibitor for 30 minutes at 30°C. Equal volumes of kinase assay mix Promega (Cat# V5601, Madison, WI) were added to the kinase/inhibitor reaction after 30 minutes, following the manufacturer’s protocol. ATP luminescence was measured using a microplate reader (SpectraMax L, Molecular Devices, Sunnyvale, CA). IC50 values were calculated from assays done in triplicate by fitting the data using Prism 8.1.1 (GraphPad).

What does the source list for CC(=O)[C@]1(O)Cc2c(O)c3c(c(O)c2[C@@H](O[C@H]2C[C@H](N)[C@H](O)[C@H](C)O2)C1)C(=O)c1ccccc1C3=O [Idarubicin]?
raw luminescence, HsERK8 (0.00015 mM compound): 5033.01 RLU and 5464.22 RLU and 4680.41 RLU; raw luminescence, HsERK8 (0.00061 mM compound): 4929.7 RLU and 5104.88 RLU and 5152.04 RLU; raw luminescence, HsERK8 (0.00244 mM compound): 4819.65 RLU and 4756.77 RLU and 4179.58 RLU; raw luminescence, HsERK8 (0.00977 mM compound): 4606.3 RLU and 4691.64 RLU and 4170.6 RLU; raw luminescence, HsERK8 (0.03906 mM compound): 4799.44 RLU and 4835.38 RLU and 4925.21 RLU; raw luminescence, HsERK8 (0.15625 mM compound): 4702.87 RLU and 5131.83 RLU and 4550.15 RLU; raw luminescence, HsERK8 (0.62500 mM compound): 4750.03 RLU and 4873.56 RLU and 4527.69 RLU; raw luminescence, HsERK8 (2.50000 mM compound): 3723.67 RLU and 3768.58 RLU and 3368.82 RLU; raw luminescence, HsERK8 (10.00000 mM compound, signal = ATP left): 988.186 RLU and 1334.05 RLU and 1307.1 RLU; inhibitory effect on kinase activity of HsERK8 (concentrations below 4.0 x10^-5 M (above this the red compound blocked luminescence)): no detectible (n/d) inhibitory effect

Reference: paper PMC12445744, “Molecular docking to homology models of human and Trypanosoma brucei ERK8 that identified ortholog-specific inhibitors” (PLOS Neglected Tropical Diseases, 2025)
